# Reference: US20050215531A1, “Use of edg receptor binding agents in cancer” (priority 2002, published 2005)
# Experiments:
# Type in all cases: cell-based, human
# HUVEC = assay: In vitro angiogenesis (tube formation) assay on Matrigel
# Method: (§1) Human umbilical vein endothelial cells (HUVEC) are cultured at 37° C. and 5% CO2 in medium M199 supplemented with 20% SCS (HyClone, Logan, Utah), 1 U/ml heparin, 50 μg/ml ECGS, 2 mM glutamine, 100 U/ml penicillin and 0.1 mg/ml streptomycin. Cells are used for experiments up to passage number 5. Short-starved HUVEC are obtained by starving with 1% SCS-containing M199 for 5 h. Recombinant human VEGF165 is obtained from PromoCell (Heidelberg, Germany). Phospho-specific ERK½, p3B kinase polyclonal antibodies, nonphospho ERK½ antibodies and LumiGLO chemiluminescent reagent are from New England BioLabs (Beverly, Mass.), polyclonal IKB antibodies from Santa Cruz Biotechnology (Santa Cruz, Calif.). Peroxidase-conjugated donkey anti-rabbit immunoglobulin G (IgG) and sheep anti-mouse IgG are purchased from Amersham LIFE SCIENCE (Amersham Place, England). lmmobilon-P transfer membranes are products of Millipore (Bedford, Mass.). S is obtained from Sigma Chemical Co.; S1P is from Biomol. Compound A-phosphate stock solution is prepared by the following protocol. Compound A-phosphate is dissolved in methanol tracing with concentrated HCl (0.5 mg Compound A-phosphate in 500 μl of methanol plus 2 μl of HCl). Solvent from the resulting solution is evaporated under vacuum and the residue obtained is redissolved (variant 1) in 0.1% of defatted BSA solution in sterile deionized water (500 μl) or (variant 2) in 0.5% Triton X-100 in deionized water. The resulting stock solutions (2.5 mM) are sonicated and stored at 4° C.
# Morphogenesis of endothelial cells into capillary-like structures on Growth Factor Reduced Matrigel Matrix (BD Bioscience) is performed according to the manufacture procedure. Briefly, HUVEC are trypsinized, resuspended in serum-free Ml 99 medium containing soybean trypsin inhibitor (1 mg/ml, Sigma). After centrifugation cells are resuspended in serum-free medium at a density 0.5×10^5 cells/ml, and cell suspension is seeded in 96-well cell culture plates (Costar, Corning Incorporated) precoated with 50 μl of Matrigel in the absence or presence of various stimuli: VEGF at 1.5 nM, S1P at 0.1-2 μM, S at 0.5-2 μM, Compound A at 0.5-2 μM, and Compound A-phosphate at 0.1-2 μM. Eight hours later, cells on Matrigel are fixed with 3% formaldehyde in PBS and kept at 4° C. Results are quantitated from images made with a Nikon Diaphot microscope equipped with a cooled CCD camera (Kappa GmbH, Gleichen, Germany) by direct counting of branching points on two microscopic fields from each well done in duplicates.
# The effect of Compound A and Compound A-phosphate on morphogenic differentiation of endothelial cells is determined using an in vitro angiogenesis assay on Matrigel. Endothelial cell morphogenesis is a complex process that requires cell-extracellular matrix interactions, followed by matrix remodelling, stimulated migration, cell-cell interactions, and perivascular proteolysis. […] This may be interpreted as a possible involvement of EDG-1 (S1P1) receptor-mediated signaling events in Compound A-phosphate-stimulated bioresponses (see e.g. FIG. 3). […] Importantly, high concentrations of S and Compound A (2-5 μM) inhibited VEGF-triggered tube formation.
# ERK½ MAP kinases = assay: Western blot, activation of ERK½ MAP kinases in HUVEC; details: HUVEC
# Method: as §1
# After various treatments, the cells are washed twice with cold PBS, lysed in 100 μl of Laemmli buffer, scraped and heated for 5 min at 95° C. Total cell lysates are separated by SDS-PAGE and transferred to Immobilon-P membrane. The membrane is blocked for 30 minutes with PBS containing 0.1% Tween-20 and 3% skim milk and incubated for 1 hour at RT with a primary antibody diluted in blocking buffer. The membrane obtained is washed three times for 5 minutes with PBS containing 0.1% Tween-20 and incubated with peroxidase-conjugated secondary antibody for 1 hour at RT. After a washing step, the membrane is incubated for 1 minute with ECL reagent and exposed to film as required. For reprobing with another antibody, the membrane is washed twice in PBS, stripped for 30 min at 55° C. with stripping buffer (62.5 mM Tris-HCL, pH 6.8, 2% SDS, 100 mM 2-mercaptoethanol) and washed three times for 5 minutes with PBS at RT. The membrane is stored wet wrapped in SaranWrap at 4° C. after each immunodetection.
# Signal transduction via MAP idnases plays a key role in a variety of endothelial cell functions. Treatment of HUVEC with Compound A-phosphate at 0.5 μM may result in transient activation of ERK½ with a peak of phosphorylation/activation at 10 minutes and returning to baseline by 20 minutes (see e.g. FIG. 5). No activation of p38 kinase and JNK½ by Compound A-phosphate is detectable in HUVEC. […] To estimate the possible role of inflammatory/NFκB-dependent program in Compound A-phosphatestimulated bioresponses of endothelial cells, the membranes are reprobed with anti-IκB antibodies. IκB levels are not affected by Compound A-phosphate treatment.
# p38 kinase = assay: Western blot, p38 kinase activation in HUVEC
# Method: as §1, with “Solvent from the resulting solution is evaporated under vacuum and the residue obtained is redissolved (variant 1) in 0.1% of defatted BSA solution in sterile deionized water (500 μl) or (variant 2) in 0.5% Triton X-100 in deionized water. The resulting stock solutions (2.5 mM) are sonicated and stored at 4° C.” left out
# JNK½ = assay: Western blot, JNK½ activation in HUVEC
# Method: as §1, with “Solvent from the resulting solution is evaporated under vacuum and the residue obtained is redissolved (variant 1) in 0.1% of defatted BSA solution in sterile deionized water (500 μl) or (variant 2) in 0.5% Triton X-100 in deionized water. The resulting stock solutions (2.5 mM) are sonicated and stored at 4° C.” left out
# IκB = assay: Western blot reprobed with anti-IκB antibodies (NFκB-dependent program); details: endothelial cells
# Method: as §1, with “Solvent from the resulting solution is evaporated under vacuum and the residue obtained is redissolved (variant 1) in 0.1% of defatted BSA solution in sterile deionized water (500 μl) or (variant 2) in 0.5% Triton X-100 in deionized water. The resulting stock solutions (2.5 mM) are sonicated and stored at 4° C.” left out
# E-Selectin = E-Selectin expression in endothelial cells
# tissue factor = assay: Clotting assay, tissue factor activity on HUVEC
# Method: as §1
# Cells are seeded in 6-well plates at 80-90% confluency and grown overnight. Cells are scraped from the plates and analyzed for tissue factor activity according to the method as described in Clauss, M., J. Biol. Chem. 271,17629-17634 (1996), Mechtcheriakova, D., Blood 93,3811-3823 (1999). Briefly, after induction for 4 hours with VEGF (1.5 nM), TNF-α (100 U/ml), S (0.5-2 μM), S1P (0.5-2 μM), Compound A (0.5-2 μM), and Compound A-phosphate (0.5-2 μM), cells are washed twice and then scraped in 1 ml clotting buffer (12 mM sodium acetate, 7 mM diethylbarbitate and 130 mM sodium chloride; pH 7.4). 50 μl of resuspended cells are mixed with 50 μl of citrated plasma, and clotting times are determined after recalcfication with 50 μl of 20 mM CaCl2 solution at 37° C. TF-equivalents are determined by using a standard curve obtained from rabbit brain thromboplastin.
# An important characteristic feature of both classical inflammatory stimulus TNF-α and the main angiogenic growth factor VEGF on endothellal cells is their potency to upregulate tissue factor. Compound A, Compound A-phosphate, S or S1P are tested whether they also do induce tissue factor on HUVEC. […] The data obtained together indicate that Compound A, Compound A-phosphate, S and S1P mechanistically work distinctly to anglogenic VEGF and inflammatory TNF-α.
structure (smiles),measurement,setting,value
CCCCCCCCc1ccc(CCC(N)(CO)COP(=O)(O)O)cc1 (centres unmarked) [Compound A-phosphate],tube formation potency at 2 μM versus 0.5 μM,HUVEC; 2 μM,less potent than at 0.5 μM
same,effect on VEGF-mediated remodelling,"HUVEC; 0.5-1 μM, with VEGF",does not attenuate
same,concentration of maximal activity in capillary-like network formation,"HUVEC; bell-shape dose-dependence, tested 0.1-2 μM, 8 h",around 0.5 μM
same,number of branching points per microscopic field (induction potency),HUVEC; compared with S1P and VEGF,comparable for Compound A-phosphate and S1P
same,time of ERK½ activation returning to baseline,ERK½ MAP kinases; 0.5 μM,≤ 20 min
same,time of peak of ERK½ phosphorylation/activation,"ERK½ MAP kinases; 0.5 μM, transient activation",10 min
same,"ERK½ activation, dose dependence",ERK½ MAP kinases; 0.5 versus 2 μM,"dose-dependent manner, showing stronger activity at 2 μM"
same,activation of p38 kinase,p38 kinase,No activation
same,activation of JNK½,JNK½,No activation
same,IκB levels,IκB,not affected
same,E-Selectin expression,E-Selectin,fail to induce
same,effect on TNF-α-induced tissue factor,tissue factor; TNF-α 100 U/ml,not TNF-α-induced
same,effect on VEGF-induced tissue factor,tissue factor; VEGF 1.5 nM,slightly enhance
same,tissue factor activity,"tissue factor; compound alone or in combinations, 0.5-2 μM, 4 hours",none of these compounds alone or in combinations may elevate tissue factor activity
